These results are taken from US10053468B2, “Heterocyclic compound” (TAKEDA PHARMACEUTICAL COMPANY LIMITED, priority 2013, dated 2018).

Read-outs that look alike come from different tables or passages of the source.

Assay [1] deals with T1, RORγt (Homo sapiens, UniProt P51449).
T1 sequence (P51449 1-497 isoform P51449-2): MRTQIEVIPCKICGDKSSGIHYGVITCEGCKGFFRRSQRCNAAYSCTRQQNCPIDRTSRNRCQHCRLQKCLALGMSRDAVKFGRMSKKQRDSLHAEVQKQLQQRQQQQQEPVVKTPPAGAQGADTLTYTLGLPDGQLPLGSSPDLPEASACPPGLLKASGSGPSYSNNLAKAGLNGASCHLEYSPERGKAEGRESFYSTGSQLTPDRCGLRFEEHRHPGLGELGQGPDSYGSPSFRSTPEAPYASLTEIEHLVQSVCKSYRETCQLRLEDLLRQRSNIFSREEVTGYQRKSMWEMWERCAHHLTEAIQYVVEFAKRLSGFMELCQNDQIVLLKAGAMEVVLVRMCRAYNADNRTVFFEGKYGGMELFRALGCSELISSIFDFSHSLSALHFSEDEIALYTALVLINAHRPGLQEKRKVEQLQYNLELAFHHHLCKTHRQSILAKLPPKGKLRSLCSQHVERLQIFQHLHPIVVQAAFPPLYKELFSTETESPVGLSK
The assay can be described thus: Cofactor recruitment test (Alpha Screen, biotinylated SRC-1 peptide). Conditions: read-out: Signal value inhibitory rate at test compound 1 μM (%). Format: biochemical. The procedure:
Cofactor Recruitment Test
Cofactor recruitment test was performed by Alpha Screen (Histidine Detection Kit, PerkinElmer) method. First, a test compound was diluted with an assay buffer (50 mM Tris-HCl (pH 7.5), 50 mM KCl, 1 mM DTT, 0.1% BSA) and added to a 384 well plate by 5 μL. […] The mixture was stood in a dark place for 1 hr, and the signal value was measured by Envision (PerkinElmer).

The target of assay [2] is T1, RORγt. Description: RORγt binding test using fluorescent-labeled cholesterol (TR-FRET). Conditions: read-out: Binding inhibitory rate of fluorescent-labeled cholesterol to RORγt at test compound 1 μM (%). The procedure: RORγt Binding Test Using Fluorescent-labeled Cholesterol
The binding activity of the test compound to RORγt was measured by a time resolved fluorescence resonance energy transfer method (TR-FRET) utilizing histidine-tagged RORγt, fluorescent-labeled cholesterol (BODIPY-cholesterol, AVIVA), and terbium-labeled anti-histidine tag antibody (Invitrogen). First, a test compound diluted with an assay buffer (20 mM Tris-HCl (pH 7.5), 100 mM NaCl, 1 mM DTT, 0.1% BSA) was added to a 384 well plate by 3 μL. Then, RORγt diluted with an assay buffer to 240 nM was added by 3 μL, after which fluorescent-labeled cholesterol diluted with the assay buffer to 12 μM was added by 3 μL, and the mixture was stood at room temperature for 20 min. Thereafter, a terbium-labeled anti-histidine tag antibody diluted with the assay buffer to 8 nM was added by 3 μL. The mixture was stood at room temperature for 20 min, and fluorescence intensity (excitation wavelength 320 nm, fluorescence wavelength 520 nm, delay time 100 microseconds) was measured by Envision (PerkinElmer).

Assay [3] concerns the target T1, RORγt. The assay can be described thus: Jurkat reporter test (human IL-17 ROR response element luciferase, RORγt vector). The format is cell-based. Conditions: read-out: Luminescence level inhibitory rate at test compound 3 μM (%). The procedure:
The Jurkat cells used for the reporter test were cultured in a culture medium (RPMI (Invitrogen), 10% FCS (AusGeneX), 100 U/mL penicillin, 100 μg/mL streptomycin). On the day of the test, 4×10^7 cells were recovered by a centrifugal operation (1000 rpm, 5 min.) and suspended in PBS (phosphate buffered saline) (Invitrogen). Thereafter, the cells were recovered again by a centrifugal operation, and suspended in 2 mL of R buffer (NEON transfection kit, Invitrogen). […] Gene transfer was performed by Electroporation apparatus (NEON, Invitrogen) under the conditions of pulse voltage 1350 V, interval 10 milliseconds, number of times 3. The cells after gene transfer were suspended in 40 mL of a reaction medium (RPMI, 10% Lipid reduced FCS (HyClone), 10 mM HEPES (pH 7.5), 100 U/mL penicillin, 100 μg/mL streptomycin, 5 μM lovastatin), and plated in a 96 well plate by 90 μL. A test compound diluted with the reaction medium was added by 10 μL, and the cells were cultured overnight in an incubator. Bright-Glo (Promega) was added by 100 μL, and the mixture was stirred at room temperature for 10 min, and the luminescence level was measured by Envision (PerkinElmer).

[4] abbreviates: test compound 3 μM, Jurkat cells.

As to `COc1ccc2c(c1)CCN(C(=O)CCCC(=O)O)[C@H]2C(=O)Nc1cc(F)c(C(C)(C)COCC(F)F)c(F)c1` [Example 162, 5-((1R)-1-((4-(1-(2,2-difluoroethoxy)-2-methylpropan-2-yl)-3,5-difluorophenyl)carbamoyl)-6-methoxy-3,4-dihydroisoquinolin-2(1H)-yl)-5-oxopentanoic acid], the inhibition at 1 µM in assay [1] is 82%; in assay [2], 99%. Further, the inhibition at 3 µM in assay [3] (setting [4]) was 95%.
On to `CCOc1ccc2c(n1)CCN(C(=O)c1cc(O)no1)[C@H]2C(=O)Nc1ccc([Si](C)(C)C)c(F)c1` [Example 149, (5R)-2-ethoxy-N-(3-fluoro-4-(trimethylsilyl)phenyl)-6-((3-hydroxy-1,2-oxazol-5-yl)carbonyl)-5,6,7,8-tetrahydro-1,6-naphthyridine-5-carboxamide], for which the values for the inhibition at 1 µM in assay [1] and in assay [2] were 99% and 103%, respectively. In addition, in assay [3] (Jurkat), the inhibition at 3 µM amounted to 103%.
Turning to `COc1ccc2c(c1)CCN(C(=O)Cn1cnccc1=O)[C@H]2C(=O)Nc1ccc(C(C)(C)C)c(F)c1` [Example 29, (1R)-N-(4-tert-butyl-3-fluorophenyl)-6-methoxy-2-((6-oxopyrimidin-1(6H)-yl)acetyl)-1,2,3,4-tetrahydroisoquinoline-1-carboxamide], the inhibition at 1 µM in assay [1] turned out to be 88%; in assay [2] it was 102%. In addition, in assay [3] (setting [4]), the inhibition at 3 µM was 102%.
Take `COc1ccc2c(c1)CCN(C(=O)CC#N)[C@H]2C(=O)Nc1cc(F)c(C(C)(C)C)c(F)c1` [Example 84, (1R)-N-(4-tert-butyl-3,5-difluorophenyl)-2-(cyanoacetyl)-6-methoxy-1,2,3,4-tetrahydroisoquinoline-1-carboxamide]: the inhibition at 1 µM in assay [1] is 92%; in assay [2] it was 101%. In addition, the inhibition at 3 µM in assay [3] (setting [4]) is 100%.
For `COc1ccc2c(c1)CCN(C(=O)c1cc(O)no1)C2C(=O)Nc1cc(F)c2c(c1)CCC2(C)C` (stereo not drawn) [Example 11, N-(7-fluoro-1,1-dimethyl-2,3-dihydro-1H-inden-5-yl)-2-((3-hydroxy-1,2-oxazol-5-yl)carbonyl)-6-methoxy-1,2,3,4-tetrahydroisoquinoline-1-carboxamide], in that order: 67.7%, 103% and 99.7%.
With `COc1ccc2c(n1)CCN(C(=O)Cc1cc(O)no1)[C@H]2C(=O)Nc1cc(F)c([Si](C)(C)C)c(F)c1` [Example 124, (5R)-N-(3,5-difluoro-4-(trimethylsilyl)phenyl)-6-((3-hydroxy-1,2-oxazol-5-yl)acetyl)-2-methoxy-5,6,7,8-tetrahydro-1,6-naphthyridine-5-carboxamide], the values for the inhibition at 1 µM in assay [1] and in assay [2] were 99% and 101%, respectively. The inhibition at 3 µM in assay [3] (Jurkat) is 102%.
As to `CCOc1ccc2c(c1)CCN(C(=O)CCCC(=O)O)[C@H]2C(=O)Nc1cc(F)c(C(C)(C)COC)c(F)c1` [Example 164, 5-((1R)-1-((3,5-difluoro-4-(1-methoxy-2-methylpropan-2-yl)phenyl)carbamoyl)-6-ethoxy-3,4-dihydroisoquinolin-2(1H)-yl)-5-oxopentanoic acid], the inhibition at 1 µM is 96% in assay [1] and 101% in assay [2]. Also, the inhibition at 3 µM in assay [3] (setting [4]) is 101%.
Turning to `CC[Si](C)(C)c1c(F)cc(NC(=O)[C@H]2c3ccc(OC)cc3CCN2C(=O)CCC(=O)O)cc1F` [Example 87, 4-((1R)-1-((4-(ethyl (dimethyl)silyl)-3,5-difluorophenyl)carbamoyl)-6-methoxy-3,4-dihydroisoquinolin-2 (1H)-yl)-4-oxobutanoic acid], the values for the inhibition at 1 µM in assay [1] and in assay [2] were 98% and 102%, respectively. Also, in assay [3] (Jurkat), the inhibition at 3 µM was found to be 102%.
For `COc1ccc2c(c1)CCN(C(=O)c1cc(O)no1)C2C(=O)Nc1ccc(C(C)(C)C)c(Cl)c1` (stereo not drawn) [Example 10, N-(4-tert-butyl-3-chlorophenyl)-2-((3-hydroxy-1,2-oxazol-5-yl)carbonyl)-6-methoxy-1,2,3,4-tetrahydroisoquinoline-1-carboxamide], the figures for the inhibition at 1 µM in assay [1] and in assay [2] were 43.8% and 98.9%, respectively. For the same compound, in assay [3] (setting [4]), the inhibition at 3 µM was 98.8%.
For the compound `CCOc1ccc2c(n1)CCN(C(=O)c1cc(O)no1)[C@H]2C(=O)Nc1cc(F)c2c(c1)CCC2(C)C` [Example 145, (5R)-2-ethoxy-N-(7-fluoro-1,1-dimethyl-2,3-dihydro-1H-inden-5-yl)-6-((3-hydroxy-1,2-oxazol-5-yl)carbonyl)-5,6,7,8-tetrahydro-1,6-naphthyridine-5-carboxamide], the inhibition at 1 µM in assay [1] is 92%; in assay [2], 102%. Also, the inhibition at 3 µM in assay [3] (setting [4]) came out at 100%.
For `COc1ccc2c(c1)CCN(C(=O)Cc1nnc(C)o1)[C@H]2C(=O)Nc1ccc(C(C)(C)C)c(F)c1` [Example 28, (1R)-N-(4-tert-butyl-3-fluorophenyl)-6-methoxy-2-((5-methyl-1,3,4-oxadiazol-2-yl)acetyl)-1,2,3,4-tetrahydroisoquinoline-1-carboxamide], in that order: 83.2%, 102% and 101%.
Take `CC[Si](C)(C)c1c(F)cc(NC(=O)[C@H]2c3ccc(COC)nc3CCN2C(=O)c2cc(O)no2)cc1F` [Example 174, (5R)-N-(4-(ethyl (dimethyl)silyl)-3,5-difluorophenyl)-6-((3-hydroxy-1,2-oxazol-5-yl)carbonyl)-2-(methoxymethyl)-5,6,7,8-tetrahydro-1,6-naphthyridine-5-carboxamide]: the inhibition at 1 µM worked out at 88% in assay [1] and 101% in assay [2]. For the same compound, the inhibition at 3 µM in assay [3] (Jurkat) was determined as 98%.
Turning to `COc1ccc2c(c1)CCN(C(=O)c1cc(O)no1)C2C(=O)Nc1cc(F)c(C(C)(C)C)c(F)c1` (stereo not drawn) [Example 12, N-(4-tert-butyl-3,5-difluorophenyl)-2-((3-hydroxy-1,2-oxazol-5-yl)carbonyl)-6-methoxy-1,2,3,4-tetrahydroisoquinoline-1-carboxamide], the inhibition at 1 µM in assay [1] amounted to 82.4%; in assay [2], 103%. For the same compound, in assay [3] (setting [4]), the inhibition at 3 µM turned out to be 99.3%.
In the same order, the values of `CCOC(=O)C(C)(C)c1ccc(NC(=O)C2c3ccc(OC)cc3CCN2C(=O)c2cc(O)no2)cc1F` (stereo not drawn) [Example 37, ethyl 2-(2-fluoro-4-(((2-((3-hydroxy-1,2-oxazol-5-yl)carbonyl)-6-methoxy-1,2,3,4-tetrahydroisoquinolin-1-yl)carbonyl)amino)phenyl)-2-methylpropanoate] are 98.3%, 103% and 98.6%.
`COc1ccc2c(c1)CCN(C(=O)c1ccc(=O)[nH]c1)[C@H]2C(=O)Nc1ccc([Si](C)(C)C)c(F)c1` [Example 8, (1R)-N-(3-fluoro-4-(trimethylsilyl)phenyl)-6-methoxy-2-((6-oxo-1,6-dihydropyridin-3-yl)carbonyl)-1,2,3,4-tetrahydroisoquinoline-1-carboxamide]: the inhibition at 1 µM was found to be 81.2% in assay [1] and 102% in assay [2]. The inhibition at 3 µM in assay [3] (Jurkat) was found to be 101%.
